Data as given in US11964953B2, “Substituted aminothiazoles as DGKzeta inhibitors for immune activation” (Bayer Aktiengesellschaft, priority 2020, dated 2024).
Where two headings read alike, the source gives them in different places.

Molecular target: human DGKζ (Homo sapiens (Human), UniProt Q13574)
Assay: Human DGKζ kinase activity inhibition assay (ADP-Glo)
Type: biochemical
Method in brief: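 Enzyme was C-terminally FLAG-tagged full-length recombinant human DGKζ from baculovirus-infected insect cells. Substrate preparation used octyl-β-D-glucopyranoside in 50 mM MOPS pH 7.4 with sonication; ADP generated was quantified by ADP-Glo luminescence as activity measure.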

[1] = in vitro human DGKζ kinase activity inhibition assay, read-out: IC50

Chain of human DGKζ (Q13574 other isoform, or with tags, fused parts or gaps): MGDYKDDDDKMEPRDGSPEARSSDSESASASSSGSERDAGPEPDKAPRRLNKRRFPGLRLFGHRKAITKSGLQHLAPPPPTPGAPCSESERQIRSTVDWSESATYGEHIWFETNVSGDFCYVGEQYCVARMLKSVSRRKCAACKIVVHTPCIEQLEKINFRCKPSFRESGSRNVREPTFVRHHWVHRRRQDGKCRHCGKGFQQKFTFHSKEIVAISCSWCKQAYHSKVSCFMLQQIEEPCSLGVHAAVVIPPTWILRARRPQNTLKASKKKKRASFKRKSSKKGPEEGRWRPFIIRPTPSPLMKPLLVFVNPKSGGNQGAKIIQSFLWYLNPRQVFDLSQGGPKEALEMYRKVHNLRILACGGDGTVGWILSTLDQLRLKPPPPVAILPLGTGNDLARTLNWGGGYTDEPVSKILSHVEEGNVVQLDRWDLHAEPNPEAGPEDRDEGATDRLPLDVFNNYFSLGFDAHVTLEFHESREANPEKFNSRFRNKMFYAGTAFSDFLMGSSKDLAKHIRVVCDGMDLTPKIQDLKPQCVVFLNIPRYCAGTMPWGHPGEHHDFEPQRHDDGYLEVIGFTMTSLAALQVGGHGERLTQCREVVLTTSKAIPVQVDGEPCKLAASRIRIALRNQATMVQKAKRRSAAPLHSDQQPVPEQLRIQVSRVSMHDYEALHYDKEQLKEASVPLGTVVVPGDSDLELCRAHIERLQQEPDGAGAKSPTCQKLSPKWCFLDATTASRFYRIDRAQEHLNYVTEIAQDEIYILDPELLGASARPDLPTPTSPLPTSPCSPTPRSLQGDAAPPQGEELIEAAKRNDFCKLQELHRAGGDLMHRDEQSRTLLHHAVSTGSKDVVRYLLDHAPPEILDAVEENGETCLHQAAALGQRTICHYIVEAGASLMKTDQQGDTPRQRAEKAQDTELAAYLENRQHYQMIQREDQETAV

IC50 [1] | Structure (SMILES) | IC50 (IC50, in vitro human DGKζ kinase activity inhibition assay)
> 20 µM | CC(C(N)=O)N(c1cnn(C)c1)c1nc(N)c(C(=O)c2ccccc2)s1 (single isomer, unassigned) [Example 78.1, 2-[(4-amino-5-benzoyl-thiazol-2-yl)-(1-methylpyrazol-4-yl)amino]propanamide] | 
0.108 µM | C[C@H](C(N)=O)N(c1ccc(F)cc1)c1nc(N)c(C(=O)c2ccccc2)s1 [Example 61.2, (R)-2-(N-(4-amino-5-benzoyl-thiazol-2-yl)-4-fluoro-anilino)propanamide] | 
1.78 µM | CC(C(N)=O)N(c1ccc(F)c(F)c1)c1nc(N)c(C(=O)c2ccc(C(F)(F)F)nc2)s1 (single isomer, unassigned) [Example 53.2, 2-(N-[4-amino-5-[6-(trifluoromethyl)pyridine-3-carbonyl]thiazol-2-yl]-3,4-difluoro-anilino)propanamide] | 
1.66 µM | CC(C(N)=O)N(c1cccnc1)c1nc(N)c(C(=O)c2ccccc2)s1 (single isomer, unassigned) [Example 79.1, 2-[(4-amino-5-benzoyl-thiazol-2-yl)-(3-pyridyl)amino]propanamide] | 
> 20 µM | Cc1cc(C(=O)c2sc(N(c3ccc(F)cc3)C(C)C(N)=O)nc2N)ccn1 (single isomer, unassigned) [Example 187.2, 2-(N-[4-amino-5-(2-methylpyridine-4-carbonyl)thiazol-2-yl]-4-fluoro-anilino)propanamide] | 
0.084 µM | CC(C(N)=O)N(c1ccc(OCc2ccccc2)cc1)c1nc(N)c(C(=O)c2ccc(OC(F)F)cc2)s1 (single isomer, unassigned) [Example 182.1, 2-(N-[4-amino-5-[4-(difluoromethoxy)benzoyl]thiazol-2-yl]-4-benzyloxy-anilino)propanamide] | 

Second part, the compound before the results:

Structure (SMILES) | IC50 [1] | IC50 (IC50, in vitro human DGKζ kinase activity inhibition assay)
CC(C(N)=O)N(c1ccc(F)cc1)c1nc(N)c(C(=O)c2ccc(OCC(=O)N(C)Cc3cccnc3)cc2)s1 (racemic) [Example 137, rac-2-(N-[4-amino-5-[4-[2-[methyl(3-pyridylmethyl)amino]-2-oxo-ethoxy]benzoyl]thiazol-2-yl]-4-fluoro-anilino)propanamide] | 0.238 µM | 
CC(C(N)=O)N(c1ccc(OCc2ccccc2)cc1)c1nc(N)c(C(=O)c2ccccc2)s1 (racemic) [Example 199, rac-2-(N-(4-amino-5-benzoyl-thiazol-2-yl)-4-benzyloxy-anilino)propanamide] | 0.396 µM | 
Cc1cccc(N(C)C(=O)COc2ccc(C(=O)c3sc(N(c4ccc(F)cc4)C(C)C(N)=O)nc3N)cc2)c1 (racemic) [Example 140, rac-2-(N-[4-amino-5-[4-[2-(N,3-dimethylanilino)-2-oxo-ethoxy]benzoyl]thiazol-2-yl]-4-fluoro-anilino)propanamide] |  | 0.0375 µM
CC(C(N)=O)N(c1ccc2c(c1)OC(F)(F)O2)c1nc(N)c(C(=O)c2ccc(Cl)cc2)s1 (racemic) [Example 213, rac-2-[[4-amino-5-(4-chlorobenzoyl)thiazol-2-yl]-(2,2-difluoro-1 ,3-benzodioxol-5-yl)amino]propanamide] | 0.042 µM | 
CC(C(N)=O)N(c1ccc(F)cc1)c1nc(N)c(C(=O)c2ccc(C#N)c(F)c2)s1 (single isomer, unassigned) [Example 21.1, 2-(N-[4-amino-5-(4-cyano-3-fluoro-benzoyl)thiazol-2-yl]-4-fluoro-anilino)propanamide] | 5.51 µM | 
CC(C(N)=O)N(c1ccc(OC(F)F)c(F)c1)c1nc(N)c(C(=O)c2ccc(OC(F)F)nc2)s1 (racemic) [Example 209, rac-2-[N-[4-amino-5-[6-(difluoromethoxy)pyridine-3-carbonyl]thiazol-2-yl]-4-(difluoromethoxy)-3-fluoro-anilino]propanamide] | 0.045 µM | 
CC(C(N)=O)N(c1ccc2c(c1)OC(F)(F)O2)c1nc(N)c(C(=O)c2ccccc2)s1 (racemic) [Example 197, rac-2-[(4-amino-5-benzoyl-thiazol-2-yl)-(2,2-difluoro-1,3-benzodioxol-5-yl)amino]propanamide] | 0.09 µM | 
CC(C(N)=O)N(c1ccc(F)cc1)c1nc(N)c(C(=O)c2ccc(OC(F)F)nc2)s1 (racemic) [Example 162, rac-2-(N-[4-amino-5-[6-(difluoromethoxy)pyridine-3-carbonyl]thiazol-2-yl]-4-fluoro-anilino)propanamide] | 0.022 µM | 
CC(C(N)=O)N(c1ccc(OC(F)(F)F)c(Cl)c1)c1nc(N)c(C(=O)c2ccncc2)s1 (racemic) [Example 225, rac-2-[N-[4-amino-5-(pyridine-4-carbonyl)thiazol-2-yl]-3-chloro-4-(trifluoromethoxy)anilino]propanamide] | 0.252 µM | 
CC(C(N)=O)N(c1ccc(OC(F)F)c(Cl)c1)c1nc(N)c(C(=O)c2ccc(OC(F)F)nc2)s1 (racemic) [Example 204, rac-2-[N-[4-amino-5-[6-(difluoromethoxy)pyridine-3-carbonyl]thiazol-2-yl]-3-chloro-4-(difluoromethoxy)anilino]propanamide] | 0.073 µM | 
CCOC(=O)C(C)(C)Oc1ccc(C(=O)c2sc(N(c3ccc(F)cc3)C(C)C(N)=O)nc2N)cc1 (racemic) [Example 259, Rac-Ethyl 2-[4-[4-amino-2-(N-(2-amino-1-methyl-2-oxo-ethyl)-4-fluoro-anilino)thiazole-5-carbonyl]phenoxy]-2-methyl-propanoate] | 0.019 µM | 
CC(C(N)=O)N(c1ccc(F)cc1)c1nc(N)c(C(=O)c2ccc(OCC(=O)N3CCc4ccccc4C3)cc2)s1 (racemic) [Example 133, rac-2-(N-[4-amino-5-[4-[2-(3,4-dihydro-1H-isoquinolin-2-yl)-2-oxo-ethoxy]benzoyl]thiazol-2-yl]-4-fluoro-anilino)propanamide] | 0.0425 µM | 
COc1ccc(C(=O)c2sc(N(c3ccc(F)c(F)c3)C(C)C(N)=O)nc2N)cc1 (racemic) [Example 51, rac-2-(N-[4-amino-5-(4-methoxybenzoyl)thiazol-2-yl]-3,4-difluoro-anilino)propanamide] | 0.0166 µM | 
CC(C(N)=O)N(c1ccc(F)cc1)c1nc(N)c(C(=O)c2ccnc(C(F)F)c2)s1 (racemic) [Example 188, rac-2-(N-[4-amino-5-[2-(difluoromethyl)pyridine-4-carbonyl]thiazol-2-yl]-4-fluoro-anilino)propanamide] | 1.24 µM | 
CC(C(N)=O)N(c1nc(N)c(C(=O)c2ccccc2)s1)c1ccc(Cl)cc1F (racemic) [Example 30, rac-2-(N-(4-amino-5-benzoyl-thiazol-2-yl)-4-chloro-2-fluoro-anilino)propanamide] | 0.0575 µM | 
CCOC(=O)c1ccc(C(=O)c2sc(N(c3ccc(Cl)c(F)c3)C(C)C(N)=O)nc2N)cc1 (racemic) [Example 258, rac-Ethyl 4-[4-amino-2-(N-(2-amino-1-methyl-2-oxo-ethyl)-4-chloro-3-fluoro-anilino)thiazole-5-carbonyl]benzoate] | 0.019 µM | 
CC(C(N)=O)N(c1ccc(F)cc1)c1nc(N)c(C(=O)c2ccc(N(C)C)nc2)s1 (racemic) [Example 278, rac-2-(N-[4-amino-5-[6-(dimethylamino)pyridine-3-carbonyl]thiazol-2-yl]-4-fluoro-anilino)propanamide] | 0.23 µM | 
COCCNC(=O)c1ccc(C(=O)c2sc(N(c3ccc(Cl)c(F)c3)C(C)C(N)=O)nc2N)cc1 (racemic) [Example 272, rac-4-[4-amino-2-(N-(2-amino-1-methyl-2-oxo-ethyl)-4-chloro-3-fluoro-anilino)thiazole-5-carbonyl]-N-(2-methoxyethyl)benzamide] | 0.039 µM | 
